Results: patent US11957699B2, “Composition comprising punicalagin for inhibiting PAR2 activity” (INDUSTRY-ACADEMIC COOPERATION FOUNDATION, YONSEI UNIVERSITY, priority 2018, dated 2024)

Columns and labels:
[1] = test system: C57BL6N mice with colitis induced by DSS; experiment: Colitis induced by dextran sodium sulfate (DSS) in mice; format: in vivo
Procedure: In 7-week-old C57BL6N mice, it was confirmed whether punicalagin has an effect of alleviating symptoms of colitis induced by dextran sodium sulfate (DSS).
Specifically, while dextran sodium sulfate (DSS), which is a colitis-causing substance, was diluted in water at 2.5% and was fed to the mice for 9 days, 1 mg/kg (n=4), 3 mg/kg (n=4), or 10 mg/kg (n=5) punicalagin was dissolved in physiological saline and intraperitoneally injected once every 48 hours, and the mice were weighed once a day. As control groups, a group which was fed only with 2.5% DSS (n=4), a group which was not fed with DSS and was not injected with punicalagin (n=3), and a group which was not fed with DSS and was injected with punicalagin at 10 mg/kg (n=3) were established, and weight changes, tissue damage, proinflammatory cytokine concentrations, and the like were measured.

[2] = test system: SD rats with colitis induced by TNBS; experiment: Colitis induced by trinitrobenzene sulfonic acid (TNBS) in rats; format: in vivo; conditions: 1, 3 and 10 mg/kg intraperitoneally for 3 days
Procedure: Specifically, 80 mg/kg TNBS was diluted in 50% ethanol and injected into the anus of rats, and punicalagin (1, 3, and 10 mg/kg) was intraperitoneally injected for 3 days. As control groups, a group which was intraperitoneally injected with PBS and treated with 50% ethanol only (n=3) and a group which was intraperitoneally injected with PBS and was treated only with TNBS (n=3) were established, and weight change was measured. After 3 days, the rats of each group were sacrificed, the colon was extracted to measure the length, and the spleen was extracted and weighed.

[3] = test system: SD rats with acute pancreatitis induced by caerulein; experiment: Acute pancreatitis induced by caerulein in rats; format: in vivo
Procedure: In 6-week-old SD rats, it was confirmed whether punicalagin has an effect of alleviating symptoms of acute pancreatitis induced by caerulein.
Specifically, […], and after 30 minutes, 40 μg/kg of caerulein, which is an acute pancreatitis-inducing substance, was intraperitoneally injected, and then, after 2 hours, the pancreas of the experimental animals was extracted and analyzed.
First, the weight of the extracted pancreas was measured to determine whether punicalagin inhibits edema, which is a symptom of acute pancreatitis. As a result, it was confirmed that when 10 mg/kg punicalagin was administered to […], in which acute pancreatitis was induced by caerulein, the edema of the pancreas was inhibited by 95% or more (panel A of FIG. 8).
Next, as a result of observing the nucleus and cytoplasm of the extracted pancreatic tissue with a microscope through H&E staining in order to confirm the damage to pancreatic cells by caerulein, it was confirmed that in the rats administered with caerulein, the distance between pancreatic cells was increased and the cells were damaged due to symptoms of acute pancreatitis.

[4] = test system: NIH3T3 cells; experiment: Cell viability of NIH3T3 cells; format: cell-based; conditions: up to 30 μM
Procedure: (§1) In order to determine the toxicity of punicalagin, the effect of NIH3T3 cells on cell viability and the weight change of 8-week-old wild-type mice were evaluated, and the heart, liver, and lung were extracted from 30-week-old lupus mice and were histologically evaluated by performing hematoxylin-eosin staining.

[5] = test system: heart, liver, and lung tissues of lupus mice; experiment: Histology (hematoxylin-eosin) of heart, liver and lung of lupus mice; format: in vivo; conditions: 3 mg/kg, 1 mg/kg, and 0.3 mg/kg; vs saline or methylprednisolone groups
Procedure: as §1

[6] = test system: C57BL6N mice with pruritus induced by PAR2-AP; experiment: Pruritus induced by PAR2-AP in mice (number of scratches); format: in vivo; conditions: for number of scratches during the initial 10 minutes: saline group 104; for number of scratches for 40 minutes: PAR2-AP group about 240
Procedure: In seven-week-old C57BL6N mice, it was confirmed whether punicalagin (PG) has an effect of alleviating pruritus symptoms induced by PAR2 receptor activation by PAR2-AP (activating peptide). In addition, the effects of punicalin (PNC) and ellagic acid (EA), which are metabolites of punicalagin and contained in pomegranate peel in a large amount, were also confirmed.
Specifically, each of 0, 1, 3, and 10 mg/kg punicalagin (n=4) was dissolved in physiological saline and intraperitoneally injected, and after 30 minutes, 100 μg of PAR2-AP was intradermally injected to induce pruritus. As control groups, a group which was intraperitoneally injected with physiological saline only (n=4) and a group which was intraperitoneally injected with 10 mg/kg punicalagin (n=4) were established, and the number of scratches was measured for 40 minutes.

[7] = molecular target: T1, PAR2 (Homo sapiens, UniProt P55085); experiment: Intracellular calcium increase by trypsin (PAR2 receptor activation) in HaCaT keratinocytes; format: cell-based; parameters: endogenous in cells; host or cells: HaCaT keratinocytes
T1 sequence (P55085 26-397): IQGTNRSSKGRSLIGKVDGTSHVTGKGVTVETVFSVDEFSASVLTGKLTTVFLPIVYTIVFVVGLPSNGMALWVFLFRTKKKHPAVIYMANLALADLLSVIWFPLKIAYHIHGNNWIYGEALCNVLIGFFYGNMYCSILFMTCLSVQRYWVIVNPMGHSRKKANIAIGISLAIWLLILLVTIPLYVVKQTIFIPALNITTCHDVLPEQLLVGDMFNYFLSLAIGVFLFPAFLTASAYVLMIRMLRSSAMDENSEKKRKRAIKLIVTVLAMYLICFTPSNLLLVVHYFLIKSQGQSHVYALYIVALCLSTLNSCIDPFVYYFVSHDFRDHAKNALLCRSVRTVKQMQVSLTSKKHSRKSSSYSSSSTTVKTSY
Procedure: After keratinocytes (HaCaT) were cultured for 48 hours in a 96-well micro plate with the DMEM culture medium, the culture medium was removed, and then, 100 μL of the Flou4-NW dye mixture was added. While blocking the light, it was stabilized for 1 hour such that a calcium ion dye (Ca^2+ dye) was loaded into the cells. 100 μM punicalagin was treated, and the concentration change of intracellular calcium ions was measured for 5 minutes (panel A of FIG. 17). Next, punicalin (0, 1, 3, 10, 20, 30, 100, and 300 μM) by concentration (panel B of FIG. 17) or punicalagin (0, 1, 3, 5, 10, 20, 30, and 100 μM) by concentration (panel C of FIG. 17) was treated for 10 minutes, and then, each well was treated with 0.1 μM trypsin to measure the concentration change of intracellular calcium ions according to PAR2 receptor activation.

[8] = 1, 3 or 10 mg/kg intraperitoneally

## O=CC1OC(=O)c2cc(O)c(O)c(O)c2-c2c(cc(O)c(O)c2O)C(=O)OC1C1OC(=O)c2cc(O)c(O)c(O)c2-c2c(O)c(O)c3oc(=O)c4c(c(O)c(O)c5oc(=O)c2c3c54)-c2c(cc(O)c(O)c2O)C(=O)OCC1O (stereo not drawn) [punicalagin, 1,2,3,11,12,13-hexahydroxy-5,10-dioxo-8-[3,4,5,11,17,18,19,22,23,34,35-undecahydroxy-8,14,26,31-tetraoxo-9,13,25,32-tetraoxaheptacyclo[25.8.0.0^2,7.0^15,20.0^21,30.0^24,29.0^28,33]pentatnaconta-1(35),2,4,6,15,17,19,21,23,27,29,33-dodecaen-10-yl]-5,7,8,10-tetrahydrodibenzo[f,h][1,4]dioxecin-7-carbaldehyde]
[1]; [8]
  colon tissue damage caused by DSS: inhibited
  concentration of proinflammatory cytokines increased by DSS: significantly reduced
  length of the colon reduced by DSS: recovered
[1]; 1, 3 or 10 mg/kg intraperitoneally once every 48 hours, 2.5% DSS 9 days
  weight loss by DSS: inhibited weight loss by DSS in a concentration-dependent manner
[2]
  colon tissue damage caused by TNBS: inhibited colon tissue damage caused by TNBS in a concentration-dependent manner
  concentrations of inflammatory cytokines (INF-γ, IL-2, IL-4, IL-6, IL-β, TNF-α, IL-1β, etc.) increased by TNBS: significantly decreased
[2]; concentration-dependent
  colon length reduction by TNBS: significantly inhibited
  weight increase of the spleen by TNBS: significantly inhibited
  weight loss by TNBS: significantly inhibited
[3]; 10 mg/kg, 30 minutes before 40 μg/kg caerulein, pancreas extracted after 2 hours
  inhibition of edema of the pancreas (pancreas weight): ≥ 95%
[3]; pretreated at 3 mg/kg, then caerulein
  edema of the pancreas and cell damage (H&E staining): strongly inhibited
[3]; rat, in vivo
  concentrations of inflammatory cytokines (INF-γ, IL-2, IL-4, IL-6, IL-β, TNF-α, IL-1β, etc.) increased by caerulein: significantly decreased
[4]
  effect on viability of NIH3T3 cells: no effect
[5]
  histological difference in heart, liver, and lung tissues: no histological difference
[6]; 1 mg/kg intraperitoneally, 100 μg PAR2-AP intradermally
  number of scratches during the initial 10 minutes: about 59 times
[6]; 1 mg/kg
  number of scratches for 40 minutes: about 188 times
[6]; 3 mg/kg intraperitoneally
  number of scratches during the initial 10 minutes: ~28 times
[6]; 3 mg/kg
  number of scratches for 40 minutes: ~103 times
[6]; 10 mg/kg intraperitoneally
  number of scratches during the initial 10 minutes: ~14 times
[6]; 10 mg/kg
  number of scratches for 40 minutes: ~40 times
[7]; 100 μM, 5 minutes
  effect on the concentration of intracellular calcium ions in keratinocytes (without trypsin): no effect
[7]; HaCaT, 0.1 μM trypsin, 10 minutes pretreatment
  inhibition of PAR2 receptor activity by trypsin: inhibited PAR2 receptor activity by trypsin in a concentration-dependent manner
[7]; HaCaT, 0.1 μM trypsin, read-out: IC50, inhibition of the PAR2 receptor (calcium increase by trypsin)
  IC50: 5.24 µM
[7]; HaCaT, trypsin
  strength of PAR2 receptor inhibition compared to punicalin: ≥ 3.7 times
